Consider one molecule from paper PMC3930563, “Mycobacterium tuberculosis Exploits Asparagine to Assimilate Nitrogen and Resist Acid Stress during Infection” (PLoS Pathogens, 2014).

The target in this test is AnsA (Rv1538c), recombinant AnsA-HIS6 (Mycobacterium tuberculosis, UniProt P9WPX5).
Chain of AnsA (Rv1538c), recombinant AnsA-HIS6 (P9WPX5 whole entry): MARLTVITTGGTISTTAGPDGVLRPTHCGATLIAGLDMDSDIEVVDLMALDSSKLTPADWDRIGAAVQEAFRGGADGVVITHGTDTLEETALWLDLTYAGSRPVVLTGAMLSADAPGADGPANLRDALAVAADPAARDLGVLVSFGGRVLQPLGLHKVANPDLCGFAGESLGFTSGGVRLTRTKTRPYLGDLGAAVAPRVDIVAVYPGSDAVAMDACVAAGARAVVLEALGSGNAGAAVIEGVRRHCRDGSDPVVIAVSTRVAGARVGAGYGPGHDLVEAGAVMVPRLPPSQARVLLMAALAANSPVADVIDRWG

As to `NC(=O)C[C@H](N)C(=O)O` [Asn, asparagine], the “coupled glutamate dehydrogenase assay, NADPH disappearance at 340 nm” value was “revealed that AnsA mediates asparagine hydrolysis (Fig. 1E)”.
